According to patent US7279548B2, “Identification and isolation of novel polypeptides having WW domains and methods of using same” (Cytogen Corporation, priority 1996, dated 2007):
Entries after “also recorded” stand apart in the source; their conditions may differ. No end group written: not given here. *: point of attachment. Biotin = O=C1N[C@H]2[C@H](CS[C@H]2CCCCC(=O)*)N1

Molecular target: T1, WWP3 WW domain expressed as GST fusion protein (Homo sapiens, UniProt Q96QZ7)
T1 construct: made in house
Assay: ELISA based cross affinity mapping, WWP3 WW domain
Type: binding
Conditions: biotinylated peptide-streptavidin/alkaline phosphatase complex
Description: The 16 day mouse embryo cDNA expression library was diluted 1:1000 in SM solution (100 mM NaCl, 8 mM MgSOv4, 50 mM Tris HCl pH 7.5, 0.01% gelatin). To a sterile test tube, 2 μl of diluted mouse embryo library, 100 μl of 10 mM CaCl2, 100 μl of 10 mM MgCl2 and 100 μl of BL21(DE3)pLysE bacterial cells (grown overnight) were added and incubated for 30 minutes at 37° C. The contents of the tube were mixed with 3 ml of 0.6% top agarose, containing […] chloramphenicol, and poured onto a 2xYT plate (90 mm diameter). For a large primary screen, 10–20 plates were prepared with 3×10^4 pfu per plate. After 6 hours incubation at 37° C., a nitrocellulose filter soaked in 10 mM isopropyl-β-D-thiogalactopyranoside (IPTG) was overlaid on each plate and incubated 3–6 hours at 37° C. Before the filters were removed from the plates, they were marked asymmetrically with India ink in a 18 gauge syringe needle. The plates were stored at 4° C. until ready for the secondary screen. The filters were washed with PBS (137 mM NaCl, 2.7 mM KCl, 4.3 mM Na2HPO4, 1.4 mM KH2PO4)-0.05% Triton X-100 three times at room temperature, 15 minutes each wash, and then placed in a plastic bag containing non-specific blocking solution (PBS-2% BSA) for one hour. In the meantime, 1 ml of 1 mM biotinylated peptide in PBS-0.1% Tween 20 was added to 20 ml of 1 mg/ml streptavidin-alkaline phosphatase (SA-AP) in PBS-0.1% Tween 20 and incubated at 4° C. for 30 minutes. As an alternative method of forming multivalent complexes, 50 pmol biotinylated peptide could have been incubated with 2 μg SA-AP (for a biotin:biotin-binding site ratio of 1:1). Excess biotin-binding sites would then be blocked by addition of 500 pmol biotin. As a further alternative, 31.2 μl of 1 mg/ml SA-AP could have been incubated with 15 μl of 0.1 mM biotinylated peptide for 30 min at 4° C. Ten μl of 0.1 mM biotin would then be added, and the solution incubated for an additional 15 min.
To determine the ligand preferences of the novel WW omain-containing clones described in Sections 6.1 and 6.1.1, as well as addressing the issue of whether peptides containing PPPPY (SEQ ID NO:3)-like motifs derived from a variety of proteins could also serve as recognition units and bind to these clones, a cross affinity mapping experiment was performed (FIGS. 15A–D). The peptides shown in FIGS. 15A–D were synthesized, biotinylated, complexed with streptavidin-alkaline phosphatase, and tested in an ELISA based assay for their ability to bind to the twelve individual novel WW domains of WWP1, WWP2, WWP3 and WWP4 which were expressed as GST fusion proteins. The ELISA based cross-affinity experiments were performed essentially as described by Sparks et al. (1996, Proc. Natl. Acad. Sci. 93:1540–1544) with the following modifications. Briefly, microtiter wells were coated with 1–5 μg of fusion protein in 100 mM NaHCO3, blocked with SuperBlock TBS (Pierce) and washed four times with PBS, 0.05% Tween 20. Specific peptide-streptavidin/alkaline phosphatase complexes were added as above and unbound complexes washed five times with PBS, 0.05% Tween 20. Following addition of PNP substrate (p-nitrophenyl phosphate, Kirkegard & Perry Labs), peptide binding was quantitated after 30 min. at O.D. 405 nm. Relative binding measurements from three independent determinations were assigned to a scale as follows: O.D. units 0–0.5=(−), 0.5–1.0=(+), 1.0–2.0=(++), 2.0–3.0=(+++), >3.0=(++++). Peptide binding to human Fyn and Lyn SH3 and SH2 domains was assessed by a filter binding assay (see Section 6.1 and Sparks et al., 1996, Proc. Natl. Acad. Sci 93:1540–1544). […]

T1 sequence (Q96QZ7 300-337 limits assumed): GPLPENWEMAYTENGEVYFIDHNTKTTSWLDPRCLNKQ

Q: Biotin-SGSGPGTPPPPYTVGPGY [WBP-1] was tested. Which “binding to WWP3 WW domain” value did it give?
A: The value was “not”.

Q: How did the “binding to WWP3 WW domain” value turn out when Biotin-SGSGPGTPYPPPPEFY [WBP-2B] was run?
A: Its value is “not”.

Q: How did the “binding to WWP3 WW domain” value turn out when Biotin-SGSGYVQPPPPPYPGPM [WBP-2A] was run?
A: The value was “specifically binds; also recorded: bound”.
